Laboratory results taken from patent publication US9880084B2, “Apparatus for separation of particles” (THE UNIVERSITY OF BRITISH COLUMBIA, priority 2011, dated 2018).

Test system: red blood cells
Assay: Red blood cell deformability analysis in microfluidic funnel constriction device (threshold pressure / cortical tension)
Format: cell-based
Settings: for Average cortical tension calculated based on equation (1): number in brackets = cells tested
Experimental: The deformability of red blood cells was evaluated using a microfluidic cell separation apparatus. An apparatus comprising a serial funnel configuration (schematically represented in FIG. 4) was employed, with funnel constructions of W0=0.5, 1, 1.5, 2, 3, 4, 5 and 6, 7 μm in series. As red blood cells are toroid or disc-shaped, rather than generally spherical, in the absence of movement restriction, they may progress through the device as a ‘flat’ disk (e.g. sideways), or ‘on edge’ (substantially upright, like a wheel). A channel with a height of about 2-3 μm or less will confine the majority of red blood cells to migrate as a ‘flat disk, while a channel with a height greater than about 3-4 μm will allow the red blood cell to migrate in either configuration, or folded or at an angle. Thus, the apparatus was configured to provide a channel depth of about 3 μm, which confines the cell to move flat into the funnel, not to stand up and fold as it traverses through. The threshold pressure required to push the cell through the funnel is measured as an indicator of the whole cell rigidity or deformability. The minimum applied pressure differential is ˜0.3 Pa. Accordingly, the cortical tension of the cell can be measured based on the information of the cell radius, funnel geometry and measured threshold pressure, as governed by equation (1) above derived from Laplace law PMS (phenazine methosulfate) generates superoxide from within the cell in the same way as the auto-oxidation process inside of the sickled red blood cell (RBC). In response to oxidation, the cell membrane stiffens. This induced stiffening may be employed to simulate the microrheologic properties of dense and/or dehydrated sickle cells (Hebbel, R. P., A. Leung, and N. Mohandas, Oxidation-Induced Changes in Microrheologic Properties of the Red-Blood-Cell Membrane. Blood, 1990. 76(5): p. 1015-1020, Hebbel, R. P., The sickle erythrocyte in double jeopardy: autoxidation and iron decompartmentalization. Seminars in hematology, 1990. 27(1): p. 51-69, and references therein). Here we use microfluidic device to measure the rigidity of PMS treated red blood cells compared to untreated (control) red blood cells, as well as the degree of rigidity change corresponding to different concentration of PMS. RBCs were suspended at 20% hematocrit in balanced salt solution with antibiotics. The RBC suspensions were then modified with 0, 10, 25, and 50 μM PMS for 60 minutes, followed by dilution 200:1 using phosphate buffered saline for use with the apparatus. The PMS treated RBCs and control RBCs were tested to investigate the effect of PMS on rigidity and/or deformability of the RBCs. Measured threshold pressures are an indication of the changes in deformability. […] Threshold pressures were measured of RBC squeezing through 1.1 μm and 1.4 μm constrictions.

**Q.** For COS(=O)(=O)[O-].C[n+]1c2ccccc2nc2ccccc21 [PMS, phenazine methosulfate], which “Threshold pressure of RBC squeezing through constrictions” value (1.1 μm and 1.4 μm constrictions, 0, 10, 25, 50 μM PMS, FIG. 15) is on record?
**A.** increases as the concentration increases

**Q.** What about the “Deformability of the red cell membrane” value (PMS 10 to 50 μM) of the same molecule?
**A.** decreases as the PMS concentration increases

**Q.** And the “Average cortical tension calculated based on equation (1)” value (RBC treated with 10 μmol PMS for 60 minutes)?
**A.** 2.29 ± 0.19 (7) pN/μm

**Q.** And the “Average cortical tension calculated based on equation (1)” value (RBC treated with 25 μmol PMS for 60 minutes)?
**A.** 3.38 ± 0.30 (7) pN/μm

**Q.** And the “Average cortical tension calculated based on equation (1)” value (RBC treated with 50 μmol PMS for 60 minutes)?
**A.** 4.17 ± 0.19 (8) pN/μm

**Q.** What about the “Red cell rigidity versus normal control RBC” value (fresh from the PMS treatment) of the same molecule?
**A.** obvious increase in rigidity
